Reference: ChEMBL document CHEMBL3046756, “Synthesis, anti-inflammatory, and structure antioxidant activity relationship of novel 4-quinazoline” (Med Chem Res, 2013)
Activity calls are given as the source filed them. The rule behind the calls is not given here.

How the values were obtained:
Mus musculus [1] = experiment: Toxicity in albino Mus musculus (mouse) assessed as rapid respiration at 150 to 900 mg/kg, ip measured within 1 to 2 hr; assay type: organism-based; set-up: route intraperitoneal; conditions: in vivo
Mus musculus [2] = experiment: Toxicity in albino Mus musculus (mouse) assessed as change in skin color at 150 to 900 mg/kg, ip measured within 24 hr; assay type: organism-based; set-up: dose 150-900 mg/kg, route intraperitoneal; conditions: in vivo
Mus musculus [3] = experiment: Toxicity in albino Mus musculus (mouse) assessed as change in toes color at 650 to 1800 mg/kg, ip measured within 24 hr; assay type: organism-based; set-up: dose 650-1800 mg/kg, route intraperitoneal; conditions: in vivo
Mus musculus [4] = experiment: Toxicity in albino Mus musculus (mouse) assessed as change in skin color at 650 to 1800 mg/kg, ip measured within 24 hr; assay type: organism-based; set-up: dose 650-1800 mg/kg, route intraperitoneal; conditions: in vivo
[5] = Antioxidant activity assessed as Fe2+ chelating activity at 1.25 mg/ml after 90 min by spectrophotometric analysis; assay type: functional
[6] = Antioxidant activity assessed as inhibition of linoleic acid peroxidation at 100 mg/l after 24 hr by spectrophotometric analysis; assay type: functional
Mus musculus [7] = experiment: Toxicity in albino Mus musculus (mouse) assessed as increase in heart rate at 650 to 1800 mg/kg, ip measured within 1 to 2 hr; assay type: organism-based; set-up: route intraperitoneal; conditions: in vivo
Mus musculus [8] = experiment: Toxicity in albino Mus musculus (mouse) assessed as change in temperature at extremities at 650 to 1800 mg/kg, ip measured within 24 hr; assay type: organism-based; set-up: dose 650-1800 mg/kg, route intraperitoneal; conditions: in vivo

Row | SMILES | Activity (Mus musculus [1]) | Activity (Mus musculus [2]) | Activity (Mus musculus [3]) | Activity (Mus musculus [4]) | Activity [5] [%] | inhibition [6] | Activity (Mus musculus [7]) | Activity (Mus musculus [8])
1 | O=c1c2ccccc2nc2n1NC(c1ccc(O)c(O)c1)C2 (stereo not drawn) | Toxic | Toxic |  |  |  |  |  | 
2 | COC(=O)c1ccccc1NC(=O)/C=C/c1ccc(O)c(O)c1 |  |  | Toxic | Toxic | 30 | Active | Toxic | Toxic
